# Measurements taken from patent publication US20150004110A1, “NOVEL ANTI-AGING AND DEPIGMENTING COSMETIC COMPOSITIONS” (DIVERCHIM, priority 2011, published 2015).
# Like-named read-outs stand apart in the source and are kept apart here.
# Columns and labels:
# PPARα (h) = target: T1, PPARα (h) (Homo sapiens, UniProt Q07869); experiment: PPARα agonist effect, coactivator Alpha screen; format: biochemical
# T1 sequence (Q07869 1-468): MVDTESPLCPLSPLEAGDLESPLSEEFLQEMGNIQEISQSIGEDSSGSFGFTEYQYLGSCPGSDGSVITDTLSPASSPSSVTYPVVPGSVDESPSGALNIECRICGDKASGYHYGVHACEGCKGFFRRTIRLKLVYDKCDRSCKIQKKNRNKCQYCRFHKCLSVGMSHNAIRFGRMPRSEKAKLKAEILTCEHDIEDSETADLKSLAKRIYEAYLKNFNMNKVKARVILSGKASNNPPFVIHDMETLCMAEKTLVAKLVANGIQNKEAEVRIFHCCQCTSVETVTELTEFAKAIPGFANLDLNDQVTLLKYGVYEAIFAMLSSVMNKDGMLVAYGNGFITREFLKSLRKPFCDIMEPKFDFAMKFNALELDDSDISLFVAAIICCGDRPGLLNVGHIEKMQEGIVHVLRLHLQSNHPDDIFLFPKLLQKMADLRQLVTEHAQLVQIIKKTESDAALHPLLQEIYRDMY
# Method: The agonist or antagonist activity of compound 1 on the PPAR receptors was tested by fluorescence techniques. • Material and Methods
# The results are expressed as: • percentage of control specific agonist response (measured specific response/control specific agonist response)×100) and • percentage inhibition of the control specific agonist response (100−((measured specific response)/control specific agonist response)×100)) obtained in the presence of compound 1.
# The EC50 values (concentration at which the maximum specific response is 50%) and the IC50 values (concentration at which the maximum control specific agonist response is inhibited by 50%) are determined by non-linear regression analysis of the concentration-response curves with a mean replicated value using adjustment of Hill's equation
# PPARγ (h) = target: T2, PPARγ (h) (Homo sapiens, UniProt P37231); experiment: PPARγ competitive radioligand binding assay (Cerep)
# T2 construct: Cerep (contract laboratory that ran the assay)
# T2 sequence (P37231 1-505): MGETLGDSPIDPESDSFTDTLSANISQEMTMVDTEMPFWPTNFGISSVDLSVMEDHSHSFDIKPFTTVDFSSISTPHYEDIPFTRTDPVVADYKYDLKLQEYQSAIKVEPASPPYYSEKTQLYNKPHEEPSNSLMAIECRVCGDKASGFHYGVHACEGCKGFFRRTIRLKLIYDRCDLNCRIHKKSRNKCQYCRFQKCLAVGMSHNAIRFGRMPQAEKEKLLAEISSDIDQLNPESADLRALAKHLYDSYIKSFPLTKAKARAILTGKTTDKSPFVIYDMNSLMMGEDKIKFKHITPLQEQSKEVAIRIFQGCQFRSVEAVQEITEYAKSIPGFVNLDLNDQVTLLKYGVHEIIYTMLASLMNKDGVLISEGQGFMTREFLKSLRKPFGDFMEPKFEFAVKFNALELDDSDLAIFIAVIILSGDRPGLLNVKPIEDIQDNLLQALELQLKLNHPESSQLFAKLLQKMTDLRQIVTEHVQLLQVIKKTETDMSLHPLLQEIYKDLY
# Method: The affinity of compound 1 for the PPAR receptors (α and γ) was tested by in vitro binding assays (tests carried out by the company Cerep).
# This is a nuclear receptor competitive binding assay, between a radiolabelled ligand and the test molecule (here compound 1).
# The principle of the technique consists of measuring the displacement of the radioactive ligand bound to the receptor by the test molecule. • Material and Methods
# The specific binding of the ligand is defined by the difference between total binding and non-specific binding determined in the presence of an excess of unlabelled ligand.
# The results are expressed as: • percentage of control specific binding ((measured specific binding/control specific binding)×100)) • percentage of inhibition of control specific binding ((100−(measured specific binding/control specific binding)) obtained in the presence of compound 1.
# The values of IC50 (concentration at which the maximum control specific binding is inhibited by 50%), and the Hill coefficient (nH) are determined by non-linear regression analysis of the curves of competition with a mean replicated value using adjustment of Hill's equation
# The inhibition constant (Ki) was calculated using the Cheng-Prusoff equation
# [1] = system: B16 melanocytes stimulated with NDP-MSH; experiment: Anti-melanogenesis activity: melanin synthesis in B16 melanocytes stimulated with NDP-MSH; format: cell-based
# Method: The depigmenting effect was evaluated on a line of type B16 melanocytes stimulated with NDP-MSH, (natural hormone stimulating melanogenesis; Melanocyte Stimulating Hormone, [Nle, DPhe]-α-MSH). Melanin synthesis was evaluated.
# The anti-melanogenesis activity of the compounds in solution in DMSO was evaluated by measuring melanin synthesis in a model of B16 melanocytes stimulated with a stable derivative of α-MSH (natural melanogenesis stimulating hormone): NDP-MSH.
# The melanocytes were seeded in a 96-well plate and were cultured for 24 h (37° C., 5% CO2, DMEM 1 g/L glucose without phenol red supplemented with glucose at 3 g/L, L-glutamine at 2 mM, penicillin at 50 U/mL, streptomycin at 50 μg/mL, foetal calf serum (FCS) at 10%). After incubation, the culture medium was then replaced with culture medium supplemented or not supplemented (unstimulated control) with a stable derivative of α-MSH and containing or not containing (controls) the test compounds or the reference (kojic acid at 25, 100, 400, 800 μg/mL). Each experiment was carried out with n=3, apart from the controls carried out with n=6, then the cells were incubated for 72 h. Wells without cells received in parallel the same quantities of medium supplemented or not supplemented with NDP-MSH and containing or not containing the test compounds or the reference in order to quantify the background noise associated with the presence of the compounds.
# After incubation for 72 hours, the total melanin (intra- and extracellular) was quantified by measuring the absorption at 405 nm of each sample (direct reading of the culture plates) against a standard range of melanin (melanin concentrations tested from 0.78 to 100 μg/mL). The background noise, measured in the wells without cells, was subtracted from the measured values so as only to take into account the effect connected with melanin production, without taking into account the possible interference connected with the presence of the compounds. The results were expressed as percentage of melanin relative to the control as well as percentage inhibition.
# The operating conditions are the same as in Example 12.
# [2] = Melanocyte, NDP-MSH stimulated B16, 72 h, Table 2, read-out: Standardized data Inhibition (%) (melanin)
# [3] = Melanocyte, comparison with 2 reference molecules, Table 3, read-out: Standardized data Inhibition (%) (melanin)
structure (smiles),measurement,setting,value
"Oc1ccccc1CCOc1ccc(F)cc1 [Compound 1, 2-[2-(4-fluoro-phenoxy)-ethyl]-phenol]",% Control agonist response,PPARα (h); 10^−5 M,2%
same,% Control agonist response,PPARα (h); 10^−6 M,0%
same,% Control agonist response,PPARα (h); 10^−7 M,−1%
same,PPARα agonist activity (conclusion in words),PPARα (h); 10^−7 to 10^−5 M,not an agonist
same,Interpretation of the 49% inhibition of PPARγ specific binding,PPARγ (h); 10^−5 M,slight to moderate effect
same,inhibition at 10 µM,"PPARγ (h); 10^−5 M, agonist radioligand, read-out: % Inhibition of control specific binding",49%
same,inhibition at 1 µM,"PPARγ (h); 10^−6 M, agonist radioligand, read-out: % Inhibition of control specific binding",1%
same,inhibition at 0.1 µM,"PPARγ (h); 10^−7 M, agonist radioligand, read-out: % Inhibition of control specific binding",0%
same,"Activity with respect to the PPARγ receptor (binding, conclusion in words)",PPARγ (h); 10^−7 to 10^−5 M,no activity
same,"Depigmenting effect (inhibition of melanin synthesis), in words",[1]; 30 μM and 100 μM,clear inhibitory effect
same,Depigmenting effectiveness compared with the two reference products,"[1]; 30 μM and 100 μM, versus rucinol and [869743-37-3]",slightly more effective than the two reference products used
same,inhibition at 10 µM,"[1]; Melanocyte, 10 μM, NDP-MSH stimulated B16, 72 h, Table 2, read-out: Standardized data Inhibition (%) (melanin)",0%
same,inhibition at 30 µM,[1]; [2],93%
same,inhibition at 30 µM,[1]; [3],98%
same,inhibition at 100 µM,[1]; [2],112%
same,inhibition at 100 µM,[1]; [3],124%
